Results from US8962689B2, “Medium chain dicarboxylic acids, their derivates and metabolic disorders” (Nestec S.A., priority 2008, dated 2015).

Legend:
Assay type in all cases: in vivo, human
[1] = test system: healthy subjects; experiment: Cross-over single-blind pilot study, mixed formula meal with sebacic acid (C10), healthy subjects; details: for Glucose AUC / Insulin AUC / Total ISR (insulin secretion rate): 0-420 minutes, mean
Method: (§1) Ingestion of the different meals was performed at 100 min.
(§2) The acute effects of oral ingestion of sebacic acid on postprandial glycemia, hepatic gluconeogenesis and glycogenolysis were tested in T2D subjects and healthy volunteers during ingestion of a mixed meal at breakfast.
(§3) Type 2 diabetic patients and healthy subjects were matched for gender distribution, age, and body mass index as reported in the following table 1:
(§4) The subjects ingested the following formula meal
(§5) No C10 group (control group): 50% CHO, 15% protein and 35% lipids plus water
(§6) 10 g C10 group: 50% CHO, 15% protein and 35% lipids plus 10 g of C10 plus water

[2] = test system: T2D subjects; experiment: Cross-over single-blind pilot study, mixed formula meal with sebacic acid (C10), T2D subjects; details: for EGP (endogenous glucose production) / Gluconeogenesis / Glucose clearance / Total Ra (rate of appearance of deuterated glucose) / Glucose AUC / Insulin AUC / Total ISR (insulin secretion rate): type 2 diabetic subjects; for Glucose AUC / Insulin AUC / Total ISR (insulin secretion rate): 0-420 minutes, mean
Method: as §1, §2, §3, §4, §5, §6

[3] = Time course of plasma sebacate in healthy subjects
Method: FIG. 4 reports the time course of plasma sebacate in healthy subjects.
FIG. 4 reports the time course of plasma sebacate in healthy subjects. The peak was reached after 320 minutes from the beginning of the experiment, i.e. […] after the ingestion of the meal enriched with C10. C10 peaked later (delay of 40 minutes) after 23 g C10 ingestion.

[4] = Time course of plasma sebacate in T2D subjects
Method: FIG. 5 reports the time course of plasma sebacate in T2D subjects.
FIG. 5 reports the time course of plasma sebacate in T2D subjects. […] Another difference was that in diabetics the two curves (10 g vs. 23 g) were overlapped up to 320 minutes, and then the concentration of C10 declined slower in the 23 g C10 fed patients compared with 10 g of C10.

[5] = healthy subjects, 10 g C10 meal
[6] = healthy subjects, 23 g C10 meal
[7] = T2D subjects (n=10), 10 g meal, vs control meal
[8] = T2D subjects (n=10), 23 g C10 DA meal, vs control meal

O=C(O)CCCCCCCCC(=O)O [C10, sebacic acid]
Change in postprandial insulinemia AUC ([1]; healthy subjects (n=10), 23 g sebacic acid, vs control meal): −38% | EGP (endogenous glucose production) [1, 5]: 6.30 ± 2.45 μmol · min^−1 · kgffm^−1 | Gluconeogenesis [1, 5]: 31.28 ± 5.07% | Glucose clearance [1, 5]: 2.73 ± 0.24 mL/min/kg | Total Ra (rate of appearance of deuterated glucose) [1, 5]: 20.60 ± 2.88 μmol · min^−1 · kgffm^−1 | Glucose AUC [1, 5]: 37400 mg·min/dL | Insulin AUC [1, 5]: 51100 pM·min | Total ISR (insulin secretion rate) [1, 5]: 101.15 nmol | EGP (endogenous glucose production) [1, 6]: 6.172 ± 0.68 μmol · min^−1 · kgffm^−1 | Gluconeogenesis [1, 6]: 31.20 ± 3.63% | Glucose clearance [1, 6]: 2.74 ± 0.26 mL/min/kg | Total Ra (rate of appearance of deuterated glucose) [1, 6]: 21.20 ± 1.30 μmol · min^−1 · kgffm^−1 | Glucose AUC [1, 6]: 38100 mg·min/dL | Insulin AUC [1, 6]: 39200 pM·min | Total ISR (insulin secretion rate) [1, 6]: 93.60 nmol | Glucose clearance, result in words ([1]; healthy subjects, C10 ingestion): significantly improved | ISR, result in words ([1]; healthy subjects, meal with lipids substituted with 23 g C10): significantly reduced | Change in postprandial Endogenous Glucose Production [2, 7]: −10% | Change in postprandial Gluconeogenesis (%) [2, 7]: −2.1% | Change in postprandial glycemia area under the curve (AUC) [2, 7]: −17% | Increase in postprandial glucose clearance [2, 7]: +12.6% | Change in postprandial Endogenous Glucose Production [2, 8]: −9% | Change in postprandial Gluconeogenesis (%) [2, 8]: −2.3% | Change in postprandial glycemia area under the curve (AUC) [2, 8]: −16% | Change in postprandial insulin secretion rate [2, 8]: −35% | Increase in postprandial glucose clearance [2, 8]: +8.2% | Glucose clearance, result in words ([2]; diabetic patients, C10 ingestion): significantly improved | GNG, result in words ([2]; diabetic patients, both C10 enriched meals): significantly reduced | Glucose AUC, result in words ([2]; diabetic patients, meal containing 10 g of C10): significantly lower | ISR, result in words ([2]; diabetic patients, meal with lipids substituted with 23 g C10): significantly reduced | EGP (endogenous glucose production) ([2]; 10 g C10 meal): 7.81 ± 3.27 μmol · min^−1 · kgffm^−1 | Gluconeogenesis ([2]; 10 g C10 meal): 40.862 ± 3.62 % | Glucose clearance ([2]; 10 g C10 meal): 1.76 ± 0.13 mL/min/kg | Total Ra (rate of appearance of deuterated glucose) ([2]; 10 g C10 meal): 19.60 ± 2.41 μmol · min^−1 · kgffm^−1 | Glucose AUC ([2]; 10 g C10 meal): 43700 mg·min/dL | Insulin AUC ([2]; 10 g C10 meal): 33500 pM·min | Total ISR (insulin secretion rate) ([2]; 10 g C10 meal): 213.69 nmol | EGP (endogenous glucose production) ([2]; 23 g C10 meal): 7.00 ± 2.47 μmol · min^−1 · kgffm^−1 | Gluconeogenesis ([2]; 23 g C10 meal): 40.72 ± 4.00 % | Glucose clearance ([2]; 23 g C10 meal): 1.71 ± 0.21 mL/min/kg | Total Ra (rate of appearance of deuterated glucose) ([2]; 23 g C10 meal): 20.32 ± 2.19 μmol · min^−1 · kgffm^−1 | Glucose AUC ([2]; 23 g C10 meal): 44200 mg·min/dL | Insulin AUC ([2]; 23 g C10 meal): 29500 pM·min | Total ISR (insulin secretion rate) ([2]; 23 g C10 meal): 142.27 nmol | EGP, result in words ([2]; type 2 diabetics, C10 enriched meals compared with the standard meal): significantly reduced | Delay of plasma C10 peak after 23 g C10 ingestion ([3]; 23 g C10 ingestion): 40 min | Time of plasma sebacate peak after the ingestion of the meal ([3]; oral, meal enriched with C10): 200 min | Time of plasma sebacate peak from the beginning of the experiment ([3]; oral, meal enriched with C10): 320 min | Plasma C10 peak times compared with controls ([4]; T2D subjects): the peak times were maintained | Plasma C10 concentration relative to values reached in controls ([4]; T2D subjects vs healthy controls): about 1.5 times
